Laboratory results from US12090146B2, “Substituted-pyridinyl compounds and uses thereof” (Bionomics Limited, priority 2018, dated 2024).

Columns and labels:
hKv3.2 = target: T1, hKv3.2 (Homo sapiens, UniProt Q96PR1); assay: Automated patch clamp (Patchliner) whole-cell electrophysiology, Kv3.2; type: cell-based; conditions: 10 μM compound, CHO-K1 cells stably expressing hKv3.2; for activation at 10 µM: % potentiation of peak current at −10 mV voltage step vs vehicle; for Kv3.2 Activity at 10 μM Voltage Shift (mV): voltage shift of the IV curve at V1/2
T1 construct: expressed in transfected cells
T1 sequence (Q96PR1 1-638): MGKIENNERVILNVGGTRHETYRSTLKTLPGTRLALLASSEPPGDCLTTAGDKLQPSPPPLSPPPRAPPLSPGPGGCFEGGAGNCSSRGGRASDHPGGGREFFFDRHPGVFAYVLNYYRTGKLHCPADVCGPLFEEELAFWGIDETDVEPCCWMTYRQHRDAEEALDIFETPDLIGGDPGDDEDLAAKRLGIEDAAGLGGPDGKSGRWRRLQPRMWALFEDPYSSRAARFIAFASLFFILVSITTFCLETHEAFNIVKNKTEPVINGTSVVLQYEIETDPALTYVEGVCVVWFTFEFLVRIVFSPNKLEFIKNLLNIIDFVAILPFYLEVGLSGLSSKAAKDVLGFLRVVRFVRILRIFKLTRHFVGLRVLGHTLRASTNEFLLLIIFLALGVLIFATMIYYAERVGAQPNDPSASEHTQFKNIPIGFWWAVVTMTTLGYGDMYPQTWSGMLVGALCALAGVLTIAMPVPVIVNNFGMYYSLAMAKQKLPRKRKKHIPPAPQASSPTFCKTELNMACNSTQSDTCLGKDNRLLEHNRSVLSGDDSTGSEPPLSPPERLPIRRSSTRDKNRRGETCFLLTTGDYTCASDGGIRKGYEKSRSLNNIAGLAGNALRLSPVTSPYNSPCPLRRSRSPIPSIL
Procedure: hKv3.1, hKv3.2, hKv3.3, and hKv3.4 were stably expressed in CHO-K1 (Chinese hamster ovary) cells and kept under constant antibiotic selection. For in vitro assays, cells were maintained in appropriate growth medium at 37° C. and 5% CO2 in a humidified incubator.
hKv3.X expressing cells were plated in T-25 flasks for 3-4 days at 37° C. (no selection antibiotic) prior to use and grown to 80% confluence. Cells were washed twice with PBS (calcium and magnesium free) and detached with a 5-minute treatment at 37° C. with 2-3 mls of Accutase®. Cells were collected, and flask was washed in CHO-SFM II media (Life Technologies Gibco), centrifuged for 2 minutes at ˜110×g and resuspended to obtain a single cell suspension of ˜2-3×10^6 cells/ml.
The intracellular solution contained the following (in mM): KCl 50, NaCl 10, KF 60, EGTA 20, HEPES 10, adjusted to pH 7.2 with KOH and an osmolarity of 285 mOsmol. Seal enhancer was purchased from Nanion (80 mM NaCl, 3 mM KCl, 10 mM MgCl2, 35 mM CaCl2), 10 mM HEPES, pH7.4, 298 mOsmol. The external solution contained (in mM): NaCl 140, KCl 4, CaCl2) 2, MgCl2 1, HEPES 10, Glucose 5, adjusted to pH7.4 and an osmolarity of 298 mOsmol.
All compounds were initially tested at 10 uM at a final DMSO concentration of 0.33%. Compounds were dissolved in dimethylsulfoxide (DMSO) at a stock concentration of 30 mM. The compound was further diluted 1:10 to give a stock concentration of 3 mM in DMSO. The final assay solution was diluted 1:300 in External solution to give a final concentration of 10 uM. For the DMSO Control Buffer 30 uL of DMSO was added to 10 mL buffer.
All electrophysiological recordings were performed at ambient temperature (21-23° C.) using automated patch clamp (Patchliner, Nanion Technologies GmbH) in the whole-cell configuration.
Cell membrane potentials were held at −80 mV, and currents were evoked by voltage steps (1000 ms duration) from −60 to +60 mV in 10 mV increments. This was performed first with vehicle (0.33% DMSO) and then with 10 uM compound, after a 3-minute incubation period. Data was taken from 4 cells per assay.
The recordings were analysed and selected using peak current amplitude (>100 pA at the −10 mV voltage step) in the absence of compound to eliminate unsuitable cells from analysis. Peak current amplitude was measured and recorded for each voltage step and data was normalised to the maximum current at +60 mV. The normalised Kv3.x currents following addition of the compound were then compared with the currents recorded prior to compound addition (vehicle control). Positive modulation was determined as % potentiation at the voltage step of −10 mV=[current (cmpd)/current (veh)]*100−100. % potentiation ≥50% was considered acceptable. In addition, voltage shift of the IV curve at V1/2 was measured. V1/2 of ≥−5 mV was also considered acceptable. IV curves were plotted in GraphPad Prism (software version 6.0) and fitted with a Boltzmann equation, where V1/2 is the voltage at half-maximal activation.

hKv3.1 = target: T2, hKv3.1 (Homo sapiens, UniProt P48547); assay: Automated patch clamp (Patchliner) whole-cell electrophysiology, Kv3.1; type: cell-based; conditions: 10 μM compound, CHO-K1 cells stably expressing hKv3.1; for Kv3.1 Activity at 10 μM Potentiation (%): % potentiation of peak current at −10 mV voltage step vs vehicle; for Kv3.1 Activity at 10 μM Voltage Shift (mV): voltage shift of the IV curve at V1/2
T2 construct: expressed in transfected cells
T2 sequence (P48547 1-511): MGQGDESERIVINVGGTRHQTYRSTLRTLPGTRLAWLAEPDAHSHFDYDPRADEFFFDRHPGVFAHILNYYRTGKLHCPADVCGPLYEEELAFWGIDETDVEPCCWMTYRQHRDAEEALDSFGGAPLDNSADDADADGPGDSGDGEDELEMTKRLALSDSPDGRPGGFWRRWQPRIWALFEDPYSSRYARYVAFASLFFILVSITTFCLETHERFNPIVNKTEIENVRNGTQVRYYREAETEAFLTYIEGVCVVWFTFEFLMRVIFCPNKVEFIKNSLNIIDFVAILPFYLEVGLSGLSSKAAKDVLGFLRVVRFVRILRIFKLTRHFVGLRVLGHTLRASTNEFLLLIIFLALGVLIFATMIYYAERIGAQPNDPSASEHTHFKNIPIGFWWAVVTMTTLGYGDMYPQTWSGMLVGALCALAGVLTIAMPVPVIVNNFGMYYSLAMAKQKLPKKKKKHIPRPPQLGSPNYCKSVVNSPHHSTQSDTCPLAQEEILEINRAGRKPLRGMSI
Summary of the method: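 CHO-K1 cells stably expressing hKv3.x recorded by whole-cell automated patch clamp at 21-23 °C, held at −80 mV with 1000 ms steps from −60 to +60 mV, vehicle then 10 uM compound (0.33% DMSO, 3-min incubation), 4 cells. Currents normalized to +60 mV; % potentiation at −10 mV and Boltzmann V1/2 shift reported.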

Row | SMILES | activation at 10 µM (hKv3.2) [%] | Kv3.2 Activity at 10 μM Voltage Shift (mV) (hKv3.2) | Kv3.1 Activity at 10 μM Potentiation (%) (hKv3.1) | Kv3.1 Activity at 10 μM Voltage Shift (mV) (hKv3.1)
1 | O=C1NC2(CCCC2)C(=O)N1c1ccnc(Oc2ccc3c(c2)OC(F)(F)O3)c1F [Example 92, 3-[2-[(2,2-difluoro-1,3-benzodioxol-5-yl)oxy]-3-fluoro-4-pyridyl]-1,3-diazaspiro[4.4]nonane-2,4-dione] | 93 | −5.37 | 227 | −7.49
2 | O=C1NC2(CCCCC2)C(=O)N1c1ccnc(Oc2ccc3c(c2)OC(F)(F)O3)c1F [Example 93, 3-[2-[(2,2-difluoro-1,3-benzodioxol-5-yl)oxy]-3-fluoro-4-pyridyl]-1,3-diazaspiro[4.5]decane-2,4-dione] | 71 | −6.55 | 142 | −8.79
